We go through seven compounds from publication PMC4794339 (Molecular and biochemical parasitology, 2016).

A word on the IC50: it is the concentration that inhibits the measured activity by half. The term Km denotes the concentration of substrate that gives half-maximal velocity. For orientation: Ki means the dissociation constant of the complex between target and ligand, obtained from inhibition or displacement.

Assay [1] concerns T. cruzi (Tulahuen strain) intracellular amastigotes. The assay is described as follows: intracellular amastigote growth inhibition in NIH-3T3 fibroblasts. Type of assay: cell-based, Trypanosoma cruzi. To be noted: for changes in the percent activity: at 50 μM, highest concentration tested.
Assay [2] deals with T1, T. cruzi glucokinase (TcGlcK) (Trypanosoma cruzi, UniProt Q4E4E1). The class given is biochemical. To be noted: for LE (ligand efficiency): LE = −RTlnKi/N, N non-hydrogen atoms, TcGlcK inhibition; for TcGlcK selectivity ratio: Ki (HsHxKIV) / Ki (TcGlcK); for fold weaker TcGlcK inhibition compared to CBZ-GlcN: ratio of Ki values.
Another assay concerns T. cruzi parasites. To be noted: acute stage; cited from earlier work.
Assay [3] deals with T. cruzi (Tulahuen strain) intracellular amastigotes. To be noted: read-out: T. cruzi IC50, reported value, cited from earlier work.
Assay [4] deals with T2, Homo sapiens hexokinase IV (HsHxKIV) (Homo sapiens, UniProt P35557).
T2 sequence (P35557 12-457 limits assumed): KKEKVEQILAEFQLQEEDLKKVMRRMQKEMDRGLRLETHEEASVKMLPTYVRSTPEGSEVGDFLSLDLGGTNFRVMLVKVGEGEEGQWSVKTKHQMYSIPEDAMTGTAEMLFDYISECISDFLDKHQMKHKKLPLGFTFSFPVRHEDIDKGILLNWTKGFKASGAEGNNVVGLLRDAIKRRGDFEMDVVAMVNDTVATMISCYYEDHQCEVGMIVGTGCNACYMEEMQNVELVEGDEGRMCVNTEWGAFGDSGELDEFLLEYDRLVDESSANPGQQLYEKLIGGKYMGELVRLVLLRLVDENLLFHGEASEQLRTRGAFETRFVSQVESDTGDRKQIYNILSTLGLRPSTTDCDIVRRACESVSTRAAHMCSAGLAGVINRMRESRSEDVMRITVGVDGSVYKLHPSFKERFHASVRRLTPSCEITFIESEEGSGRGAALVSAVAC
To be noted: read-out: KM for D-glucose, non-His-tagged wt-HsHxKIV; cited from earlier work.

Assay [5] has as its system T. cruzi hexokinase (TcHxK). The settings on record: read-out: KM for D-glucose catalysis, TcHxK; cited from earlier work.
For assay [6], the target named is T1, T. cruzi glucokinase (TcGlcK). To be noted: read-out: KM for D-glucose, TcGlcK; room temperature, pH 8.5; cited from earlier work.
Assay [7] deals with T2, Homo sapiens hexokinase IV (HsHxKIV). Type of assay: biochemical. The settings on record: read-out: KM for D-glucose, His6-HsHxKIV; truncated construct; 22 °C, pH 7.6.
A further assay has as its target TbHxK. The settings on record: read-out: Ki, TbHxK; cited from earlier work.
Setting [8] is: ratio of amastigote IC50 values.

SMILES strings stand for the structures. Read-outs that look alike come from different tables or passages of the source.

Turning to `O=C(N[C@H]1C(O)O[C@H](CO)[C@@H](O)[C@@H]1O)c1ccccc1` (stereo partly drawn) [BENZ-GlcN, 2-benzamido-2-deoxy-D-glucopyranose], in assay [1] (setting [8]), the “fold weaker inhibition effect compared to amphotericin B” value is reported as 34 fold and the “fold weaker inhibition effect compared to benznidazole” value worked out at 14 fold. The “LE (ligand efficiency)” value in assay [2] amounted to 0.30 kcal/mol.

Take `O=C(Cn1ccnc1[N+](=O)[O-])NCc1ccccc1` [Benznidazole, N-Benzyl-2-nitro-1H-imidazole-1-acetamide]: the parasitological cures in the assay with T. cruzi parasites is not above 80%. The IC50 in assay [3] (ref 50) was 1430 nM; in assay [3] (ref 51) it was 1500 nM.

Take `O=C(N[C@H]1C(O)O[C@H](CO)[C@@H](O)[C@@H]1O)OCc1ccccc1` (stereo partly drawn) [CBZ-GlcN, 2-N-carboxybenzyl-2-deoxy-D-glucosamine]: in assay [2], the TcGlcK selectivity ratio worked out at 245 and the “LE (ligand efficiency)” value was 0.38 kcal/mol.

Take `OC[C@H]1OC(O)[C@H](O)[C@@H](O)[C@@H]1O` (stereo partly drawn) [D-glucose]: the Km is 6000 µM in [4]; 60 µM in [5]; 948 ± 295 µM in assay [2] (read-out: KM for D-glucose, His6-TcGlcK, room temperature (22 °C), pH 7.6); 1000 µM in [6]; 41800 ± 8700 µM in assay [7].

As to `O=C(N[C@H]1C(O)O[C@H](CO)[C@@H](O)[C@@H]1O)OCC1=Cc2ccccc2S1(=O)=O` (stereo partly drawn) [DBT-GlcN, 2-[[1,1-dioxobenzo[b]thiophen-2-yl]methyloxocarbonylamino]-2-deoxy-D-glucosamine], the “changes in the percent activity” value in assay [1] is listed as “not significant”. Further, in assay [2], the “LE (ligand efficiency)” value was 0.27 kcal/mol and the “fold weaker TcGlcK inhibition compared to CBZ-GlcN” value was 6 fold.

Take `O=C(CCc1ccc(O)cc1)N[C@H]1C(O)O[C@H](CO)[C@@H](O)[C@@H]1O` (stereo partly drawn) [HPOP-GlcN, 2-[[3-(4-hydroxyphenyl)-1-oxopropyl]amino]-2-deoxy-D-glucosamine]: the “changes in the percent activity” value in assay [1] was “not significant”. In assay [2], the TcGlcK selectivity ratio is recorded as 186, the “LE (ligand efficiency)” value was 0.35 kcal/mol and the “fold weaker TcGlcK inhibition compared to CBZ-GlcN” value was 1.8 fold.

For `O=C(N[C@H]1C(O)O[C@H](CO)[C@@H](O)[C@@H]1O)c1cccc(Br)c1` (stereo partly drawn) [m-bromo-benzoyl glucosamine], the Ki on TbHxK was 2800 nM.
